# Data as given in US6620422B1, “Compositions containing a peptide and polylactic-glycolic acid suitable for preparing subcutaneous implants with an extended release period” (Mediolanum Farmaceutici S.p.A., priority 1998, dated 2003).
# Experiment: physchem
smiles,measurement,setting,value
"CCNC(=O)[C@@H]1CCCN1C(=O)[C@H](CCCNC(=N)N)NC(=O)[C@H](CC(C)C)NC(=O)[C@@H](Cc1c(C)[nH]c2ccccc12)NC(=O)[C@H](Cc1ccc(O)cc1)NC(=O)[C@H](CO)NC(=O)[C@H](Cc1c[nH]c2ccccc12)NC(=O)[C@H](Cc1c[nH]cn1)NC(=O)[C@@H]1CCC(=O)N1 [avoreline, 5-oxo-L-prolyl-L-histidil-L-tryptophil-L-seryl-L-tyrosil-2-methyl-D-tryptophil-L-leucyl-L-arginyl-N-ethyl-prolylamide]",pKa,pKa,9.7
same,pKa,pKa (first value),6.15
same,pKa,pKa (third printed value),12
